Measured values as given in patent US9701709B2 (REATA PHARMACEUTICALS, INC., priority 2012, dated 2017).
Where two headings read alike, the source gives them in different places.

Legend:
[1] = tested on: human NQO1 ARE (Nrf2) in HuH-7 human hepatoma cells; test: NQO1-ARE luciferase reporter in HuH-7; format: cell-based; conditions: for Concentration required to increase transcription from the NQO1 ARE by 2-fold: HuH-7, 18 h
Source text: The first luciferase reporter tested was under the control of a single ARE derived from the promoter of the human NQO1 gene, which allows for quantitative assessment of the endogenous activity of the Nrf2 transcription factor in cultured mammalian cells. […] The NQO1-ARE-luciferase reporter plasmid was constructed by inserting the human NQO1-ARE ([NT] ID NO: 31) into the pLuc-MCS vector using HindIII/XhoI cloning sites (GenScript Corp., Piscataway, N.J.). […] Firefly and Renilla luciferase activity was assayed by Dual-Glo Luciferase Assay (cat # E2920, Promega), and the luminescence signal was measured on an L-Max II luminometer (Molecular Devices). Firefly luciferase activity was normalized to the Renilla activity, and fold induction over a vehicle control (DMSO) of normalized Firefly activity was calculated. […] Values represent the average of three independent experiments.

[2] = tested on: TNF-α-induced NF-κB activation in A549/NF-κB-Luc cells; test: TNF-α-induced NF-κB luciferase reporter in A549/NF-κB-Luc; format: cell-based; conditions: Homo sapiens
Source text: (b) TNF-α-induced activation of an NF-κB luciferase reporter in the human A549 cell line.
(§1) NF-κB is a transcription factor that plays a central role in the regulation of many immune and inflammatory responses. […] The NIH3T3/NF-κB-luc cell line maintains a chromosomal integration of a Firefly luciferase reporter construct regulated by eight copies of the NF-κB response element. The effects of these compounds can be quantified by measuring the value of the NF-κB IC50.

[3] = tested on: rat GSTA2 ARE (Nrf2) in AREc32 reporter cell line; test: GSTA2-ARE luciferase reporter in AREc32; conditions: 4-fold GSTA2-ARE induction
MRP-1 = MRP-1 (Homo sapiens, UniProt P33527); test: in vitro; conditions: not told
[4] = tested on: NF-κB in NIH3T3/NF-κB-luc cell line; test: NF-κB luciferase reporter in NIH3T3/NF-κB-luc; format: cell-based; conditions: Mus musculus
Source text: (b) TNF-α-induced activation of an NF-κB luciferase reporter in the mouse NIH3T3 cell line.
as §1

[5] = tested on: LPS-induced NO (plasma NOx, Griess Reaction); test: Suppression of NO in vivo after LPS in CD-1 mice; parameters: species or system mouse; conditions: LPS 5 mg/kg 24 h later
Procedure: FIG. 51—Dose-dependent suppression of NO in vivo by 63415. CD-1 mice (n=6) were dosed with DMSO or […] by oral gavage. LPS (5 mg/kg) was administered 24 h later. Twenty-four hours after LPS administration, whole blood was collected for NO assay. NO inhibition was determined by Griess Reaction from reduced, de-proteinated plasma.

NQO1 activity = NQO1 activity induction in mouse liver, lung, and kidney after PO QD×3; format: in vivo; conditions: mice PO QD×3 25 mg/kg, 6 h after last dose
Procedure: FIG. 53—NQO1 activity induction in mouse liver, lung, and kidney by 63415. Mice were dosed PO QD×3 with 25 mg/kg. Tissues were collected 6 h after the last dose, and analysis of NQO1 activity was performed.

[6] = Distribution into mouse tissues after PO QD×3; format: in vivo; conditions: mice PO QD×3 25 mg/kg, 6 h after last dose, semi-quantitative
Procedure: Semi-quantitative analysis of drug content was performed.

[7] = Dynamic vapor sorption (hygroscopicity); format: physicochemical
Procedure: Projekt Messtechnik Sorptions Prüfsystem SPS 11-100n or Surface Measurement Systems DVS-1. The sample was placed on an aluminum or platinum holder on top of a microbalance and allowed to equilibrate for 2 h at 50% r.h. before starting the pre-defined humidity program: • (1) 50→0% r.h. (5%/h); 5 h at 0% r.h. • (2) 0→95% r.h. (5%/h); 5 h at 95% r.h. • (3) 95→50% r.h. (5%/h); 2 h at 50% r.h.

[8] = Polymorph screen: crystallization and drying experiments (FT-Raman, PXRD, TG-FTIR, DSC); format: physicochemical
Procedure: A preformulation and polymorphism study was performed for compound 63415. […] A total of 30 crystallization experiments, including phase equilibrations, drying experiments and other techniques, were carried out. All obtained solids were characterized by FT-Raman spectroscopy. All new forms were characterized by PXRD and TG-FTIR, and optionally by DSC and DVS.
All obtained materials were characterized by FT-Raman spectroscopy; selected samples were also characterized by PXRD.
Suspension equilibration experiments were carried out in one solvent and eleven solvent mixtures (Table 13). Suspensions of ˜100 mg of PP415-P1 in 0.2-2.0 mL of the selected solvents were prepared and shaken for 4-15 days at 22-24° C. The solids were recovered and characterized by FT-Raman spectroscopy; most were characterized also by PXRD.
Hot solutions of PP415-P1 were prepared in one solvent and four solvent mixtures (Table 14). […] In two cases (-P22, -P23) no solid precipitated, even after storage at 4-5° C. for two days. Here, the solvent was evaporated under N2 flow at r.t. The solids were recovered and characterized by FT-Raman spectroscopy and for those with spectra different from the amorphous starting material, FT-Raman class 1, also by PXRD.
Clear solutions of PP415-P1 were prepared in three solvent mixtures (Table 15). The solvents were then slowly evaporated at r.t. under ambient conditions. However, in two of the three experiments (-P15 and -P17) white solid precipitated before evaporation began. The obtained solids were examined by FT-Raman spectroscopy and PXRD.
At least one sample of each class was dried under vacuum with the aim to desolvate the solvates and to obtain non-solvated crystalline forms of 63415 (Table 16). The dried materials were characterized further by FT-Raman, PXRD, and TG-FTIR.
Bruker RFS100 with OPUS 6.5 software; Nd:YAG 1064-nm excitation, Ge detector, 3500-100 cm^−1 range; typical measurement conditions: 100-300 mW nominal laser power, 64-128 scans, 2 cm^−1 resolution.
Stoe Stadi P; Mythen1K Detector; Cu—Kα radiation; standard measurement conditions: transmission; 40 kV and 40 mA tube power; curved Ge monochromator; 0.02°2θ step size, 12 s or 60 s step time, 1.5-50.5°2θ or 1.0-55°2θ scanning range; detector mode: step scan; 1°2θ or 6°2θ detector step; standard sample preparation: 10 to 20 mg sample was placed between two acetate foils; sample holder: Stoe transmission sample holder; the sample was rotated during the measurement.
Netzsch Thermo-Microbalance TG 209 with Bruker FT-IR Spectrometer Vector 22; aluminum crucible (with microhole), N2 atmosphere, 10 K/min heating rate, 25-250° C. or 25-350° C. range.
Perkin Elmer DSC 7; gold crucibles (closed or with microhole), sample filled in an N2 environment, 10 K/min heating rate, −50 to 250° C. or 350° C. range, at times quench cooling (at −200 K/min) to −50° C. between scans.

[9] = not viability normalized, read-out: NF-κB IC50, human A549 cell line (further experimentation)
[10] = read-out: NF-κB IC50, human A549 cell line, viability normalized
[11] = not viability normalized, read-out: NIH3T3/NF-κB IC50
[12] = viability normalized, read-out: NIH3T3/NF-κB IC50, normalized for viability

MRP-1, sequence (P33527 whole entry): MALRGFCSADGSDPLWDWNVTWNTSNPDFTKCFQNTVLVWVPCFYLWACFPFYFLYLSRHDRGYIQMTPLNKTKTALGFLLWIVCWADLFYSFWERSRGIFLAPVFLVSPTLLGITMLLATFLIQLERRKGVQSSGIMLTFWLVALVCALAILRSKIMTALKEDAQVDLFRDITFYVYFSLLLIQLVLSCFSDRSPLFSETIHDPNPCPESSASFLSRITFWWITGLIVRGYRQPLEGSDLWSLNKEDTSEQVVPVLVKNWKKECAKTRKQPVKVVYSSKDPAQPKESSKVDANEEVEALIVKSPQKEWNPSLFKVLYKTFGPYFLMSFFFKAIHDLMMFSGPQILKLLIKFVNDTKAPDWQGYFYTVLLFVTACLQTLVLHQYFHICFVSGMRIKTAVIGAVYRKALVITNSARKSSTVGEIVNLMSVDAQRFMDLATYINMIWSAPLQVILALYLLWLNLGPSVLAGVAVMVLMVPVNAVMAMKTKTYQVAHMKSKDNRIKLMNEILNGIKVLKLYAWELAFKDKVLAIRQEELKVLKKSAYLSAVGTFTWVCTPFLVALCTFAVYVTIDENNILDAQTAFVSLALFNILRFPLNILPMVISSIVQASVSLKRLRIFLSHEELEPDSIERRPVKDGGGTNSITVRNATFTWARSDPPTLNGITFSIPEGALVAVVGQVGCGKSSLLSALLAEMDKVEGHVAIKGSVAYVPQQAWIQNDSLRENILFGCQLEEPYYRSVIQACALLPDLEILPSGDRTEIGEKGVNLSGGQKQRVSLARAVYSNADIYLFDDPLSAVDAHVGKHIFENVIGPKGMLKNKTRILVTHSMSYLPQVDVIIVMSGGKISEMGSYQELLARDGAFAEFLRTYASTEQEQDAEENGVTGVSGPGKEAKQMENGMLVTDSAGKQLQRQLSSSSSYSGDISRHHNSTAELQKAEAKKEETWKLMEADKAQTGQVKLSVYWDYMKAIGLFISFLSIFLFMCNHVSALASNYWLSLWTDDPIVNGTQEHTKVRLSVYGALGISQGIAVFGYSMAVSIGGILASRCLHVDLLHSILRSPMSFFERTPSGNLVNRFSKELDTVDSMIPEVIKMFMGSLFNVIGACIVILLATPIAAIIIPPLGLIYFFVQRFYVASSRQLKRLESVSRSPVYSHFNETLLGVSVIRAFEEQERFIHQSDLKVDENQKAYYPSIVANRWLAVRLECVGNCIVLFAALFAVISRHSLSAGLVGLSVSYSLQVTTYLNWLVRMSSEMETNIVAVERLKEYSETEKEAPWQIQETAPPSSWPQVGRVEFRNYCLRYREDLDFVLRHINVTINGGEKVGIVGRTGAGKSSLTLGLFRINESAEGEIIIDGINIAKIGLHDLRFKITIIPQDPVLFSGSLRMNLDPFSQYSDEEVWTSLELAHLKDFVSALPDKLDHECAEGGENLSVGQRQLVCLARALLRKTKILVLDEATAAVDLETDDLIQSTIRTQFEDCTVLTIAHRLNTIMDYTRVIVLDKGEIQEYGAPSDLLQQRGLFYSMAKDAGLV

Row | SMILES | IC50 [2, 9] | IC50 [2, 10] | Fold increase in amount of compound needed compared to RTA 402 for the same activity [3] | efflux ratio (MRP-1) | IC50 [4, 11] | IC50 [4, 12] | Concentration required to increase transcription from the NQO1 ARE by 2-fold [1] | other results
1 | CC1(C)CC[C@]2(CO)CC[C@]3(C)[C@H](C(=O)C=C4[C@@]5(C)C=C(C#N)C(=O)C(C)(C)[C@@H]5CC[C@]43C)[C@@H]2C1 [Compound 63355] |  |  |  |  |  |  |  | NQO1-ARE (fold at 62.5 nM in HuH7) ([1]; 62.5 nM): 6.5 ± 0.9 fold
2 | CC1(C)CC[C@]2(NC(=O)C(F)(F)F)CC[C@]3(C)[C@H](C(=O)C=C4[C@@]5(C)C=C(C#N)C(=O)C(C)(C)[C@@H]5CC[C@]43C)[C@@H]2C1 [Compound 63171] | 2 µM | 2.1 µM | 2.65 fold | 11.2 | 1.7 µM | 1.8 µM |  | 
3 | CCNC(=O)[C@]12CCC(C)(C)C[C@H]1[C@H]1C(=O)C=C3[C@@]4(C)C=C(C#N)C(=O)C(C)(C)[C@@H]4CC[C@@]3(C)[C@]1(C)CC2 [RTA 405, reference compound] |  |  |  |  |  |  |  | NOx Levels (% vs LPS Controls) ([5]; 13 mg/kg oral gavage): 44%; NOx Levels (% vs LPS Controls) ([5]; 25 mg/kg oral gavage): 26%; NOx Levels (% vs LPS Controls) ([5]; 50 mg/kg oral gavage): 18%; NQO1 activity induction, Kidney (NQO1 activity): 8.25; NQO1 activity induction, Liver (NQO1 activity): 1.93; NQO1 activity induction, Lung (NQO1 activity): 1.48; concentration at 6 h ([6]; brain, read-out: Drug content, Brain): 93 nM; concentration at 6 h ([6]; kidney, read-out: Drug content, Kidney): 2360 nM; concentration at 6 h ([6]; liver, read-out: Drug content, Liver): 1140 nM; concentration at 6 h ([6]; lung, read-out: Drug content, Lung): 1630 nM; concentration at 6 h ([6]; plasma, read-out: Drug content, Plasma): 130 nM; concentration at 6 h ([6]; whole blood, read-out: Drug content, Whole Blood): 1160 nM
4 | CCC(=O)N[C@]12CCC(C)(C)C[C@H]1[C@H]1C(=O)C=C3[C@@]4(C)C=C(C#N)C(=O)C(C)(C)[C@@H]4CC[C@@]3(C)[C@]1(C)CC2 [Compound 63189] | 1.1 µM | 1.2 µM | 3.47 fold | 57.1 | 1.1 µM | 1 µM | 14.9 nM | 
5 | CC1(C)CC[C@]2(NC(=O)C(C)(F)F)CC[C@]3(C)[C@H](C(=O)C=C4[C@@]5(C)C=C(C#N)C(=O)C(C)(C)[C@@H]5CC[C@]43C)[C@@H]2C1 [desolvated class 4] |  |  |  |  |  |  |  | DVS: hygroscopicity class [7]: DVS: slightly hygroscopic; Δm = (mass increase <2% but ≧0.2%); DVS: total mass gain from 0% r.h. to 95% r.h. ([7]; 0% r.h. to 95% r.h.): mass gain of 2.1 wt.-% from 0%; DVS: Δm (50%→85% r.h.) ([7]; 50%→85% r.h., listed as PP415-P37): +0.7% (50%→85% r.h.); total; post-DVS Raman and/or PXRD: solid form ([7]; after DVS, listed as PP415-P37): to class 4; Hygroscopicity classification (DVS) ([7]; mass gain at 85% r.h.): slightly hygroscopic (mass increase <2% but ≧0.2%); DSC: no decomposition up to [8]: no decomposition up to 270 °C; TG-FTIR: mass loss (solvent) ([8]; first or main loss, solvent and temperature range per sample as printed): TG-FTIR: loss of ~0.9 wt.-%; TG-FTIR: decomposition at T ([8]; listed as PP415-P37): decomposition at T > 280 °C
6 | CC(=O)N[C@]12CCC(C)(C)C[C@H]1[C@H]1C(=O)C=C3[C@@]4(C)C=C(C#N)C(=O)C(C)(C)[C@@H]4CC[C@@]3(C)[C@]1(C)CC2 [Compound 63170] | 1 µM | 1.1 µM | 3.40 fold | 10 | 1.1 µM | 1.1 µM | 25.2 nM | 
7 | CC1(C)CC[C@]2(NC(=O)CC(F)(F)F)CC[C@]3(C)[C@H](C(=O)C=C4[C@@]5(C)C=C(C#N)C(=O)C(C)(C)[C@@H]5CC[C@]43C)[C@@H]2C1 [Compound 63179] | 1.4 µM | 1.5 µM | 6.05 fold | 56.5 | 0.2 µM | 0.6 µM | 29.1 nM | 
